Source: patent US11286263B2, “Macrocyclic fluorine substituted indole derivatives” (The Broad Institute, Inc., priority 2017, dated 2022)
Values joined by “and” are separate entries in the source; they are usually repeats but may differ in a detail not shown here. Equal entries are not always repeated. Structures can show the parent of a compound that is named as a salt. Where two headings read alike, the source gives them in different places.

Experiments:
SUDHL5 [1] = assay: Antiproliferation assay SUDHL5 (Assay 7); type: cell-based; conditions: SUDHL5 cells, CellTiter-Glo, median, read-out: IC50 Antiproli SUDHL5 [M] (median)
Procedure, shortened: (§1)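 Cells were incubated with compounds for 72 h at 37°C. Viability was then read by CellTiter-Glo luminescence, and a parallel day 0 plate read the same way gave the time-zero signal.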

SUDHL5 [2] = assay: Induction of cytotoxicity, SUDHL5 (Assay 6); conditions: read-out: IC50 Cytotox SUDHL5 [M] (median), SUDHL5 cells, 5 h, CellTiter-Glo
A2780 = assay: Antiproliferation assay A2780 (Assay 7); type: cell-based; conditions: A2780 cells, CellTiter-Glo, single determinations, read-out: IC50 Antiproli A2780
Procedure, shortened: as §1

SUDHL10 = assay: Induction of cytotoxicity, SUDHL10 (Assay 6); conditions: read-out: IC50 Cytotox SUDHL10 [M] (median), SUDHL10 cells, 5 h, CellTiter-Glo
BCL-2 = BCL-2 (Homo sapiens (Human), UniProt P10415); assay: Protein-protein interaction assay BCL-2/Bad BH3 peptide (BCL-2 assay), TR-FRET; type: binding; conditions: BCL-2/Bad BH3 peptide TR-FRET; median
Sequence of BCL-2 (P10415 1-211): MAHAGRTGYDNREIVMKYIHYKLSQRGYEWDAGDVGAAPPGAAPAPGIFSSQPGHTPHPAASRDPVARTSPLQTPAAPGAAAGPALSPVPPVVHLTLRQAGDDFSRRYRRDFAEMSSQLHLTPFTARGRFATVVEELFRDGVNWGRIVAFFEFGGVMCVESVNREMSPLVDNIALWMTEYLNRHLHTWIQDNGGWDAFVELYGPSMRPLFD
Protocol: Assay 3 Protein-Protein Interaction assay: BCL-2/Bad BH3 Peptide (BCL-2 Assay)
The dose-dependent inhibition by the compounds described in this invention of the interaction between BCL-2 and the BH3 domain of Bad (both human) was determined using a steady state binding competition assay with time-resolved fluorescence energy transfer (TR-FRET) readout. For that purpose BCL-2 (amino acids 1-211, C-terminal fused to a hexahistidine (6× His) tag (SEQ ID 5) and a synthetic Bad BH3-derived peptide of sequence Biotin-PEG2-PEG2-NLWAAQRYGRELRR-Nle-SDEFVDSFKK-amide (SEQ ID 4) served as protein receptor and tracer ligand respectively. The recombinant BCL-2 protein (expressed in E. coli) was purchased from BPS Bioscience (San Diego, Calif., USA). The Bad BH3-derived peptide can be obtained from e.g. Biosyntan (Berlin, Germany).
In the assay 11 different concentrations of each compound (0.1 nM, 0.33 nM, 1.1 nM, 3.8 nM, 13 nM, 44 nM, 0.15 μM, 0.51 μM, 1.7 μM, 5.9 μM and 20 μM) were typically measured as duplicates in the same microtiter plate. For that, 100-fold concentrated DMSO solutions were prepared by serial dilutions (1:3.4) of a 2 mM stock solution in a clear, 384-well microtiter plate (Greiner Bio-One, Frickenhausen, Germany). From there, 50 nl were transferred in a dark test plate (Greiner Bio-One, Frickenhausen, Germany). The assay was initiated by addition of 2 μl of a 2,5-fold concentrated His-BCL-2 solution (usually for a 1 nM end concentration in 5 μl reaction volume) in aqueous assay buffer [50 mM Tris/HCl pH 7, 100 mM sodium chloride (NaCl), 50 mM potassium fluoride (KF), 0.005% Tween-20, 2 mM DTT, 0.1% bovine gamma globulin (BGG)] to the compounds in the assay plate. This was followed by a 10-minute incubation step at 22° C. for pre-equilibration of the putative complex between His-BCL-2 and the compounds. After that, 3 μl of a 1.67-fold concentrated solution (in assay buffer) consisting of Bad BH3-derived peptide (1 nM end concentration) and TR-FRET detection reagents [1.67 nM anti-His-Eu cryptate and 1.67 nM streptavidin-XL665 (both from Cisbio Bioassays, Codolet, France)], were added.
The mixture was incubated in the dark for one hour at 22° C. and then overnight at 4° C. The formation of BCL-2/Bad complexes was determined by measuring the resonance energy transfer of the anti-His-Eu-cryptate antibody to the streptavidin-XL665 present in the reaction. For that purpose, the fluorescence emission at 620 nm and 665 nm after excitation at 330-350 nm was measured in a TR-FRET measuring instrument, for instance a Rubystar or a Pherastar (both from BMG Lab Technologies, Offenburg, Germany) or a Viewlux (Perkin-Elmer). The ratio of the emission at 665 nm and at 622 nm was used as indicator of the amount of BCL-2/Bad complexes present.
The resulting data (ratio) were normalized, taking 0% inhibition as the mean value of control measurements (usually 32 data points) where all reagents were included. In this case 50 nl DMSO were used instead of compounds. A 100% inhibition corresponded to the mean value of control measurements (usually 32 data points) where all reagents except BCL-2 were included. IC50 values were determined by regression analysis based on a 4 parameter equation (minimum, maximum, IC50, Hill; Y=Max+(Min−Max)/(1+(X/IC50)^Hill) using the Screener Software (Genedata).

Cc1c2c(nn1C)COCCCCn1c(C(=O)O)c(CCCOc3cccc4ccccc34)c3ccc(F)c-2c31 (racemic) [Example 2, (rac)-4-fluoro-2,3-dimethyl-7-[3-(naphthalen-1-yloxy)propyl]-2,10,11,12,13,15-hexahydro-pyrazolo[4′,3′:9,10][1,6]oxazacycloundecino[8,7,6-hi]indole-8-carboxylic acid]
IC50 (SUDHL5 [1]; Homo sapiens, SU-DHL-5, 72 h): 1.4e-06 M | IC50 (SUDHL5 [2]; Homo sapiens, SU-DHL-5, 5 h): 1e-06 M | IC50 (A2780; 72 h, listed as 02): 12.2 µM and 14.5 µM | IC50 (A2780; Homo sapiens, A2780, 72 h): 13 µM | IC50 (SUDHL10; Homo sapiens, SU-DHL10, 5 h): 1.6e-06 M

Cc1c2c(nn1C)COCCCCn1c(C(=O)O)c(CCCOc3ccc(F)c4ccccc34)c3ccc(F)c-2c31 (racemic) [Example 15, (rac)-13-fluoro-1-(3-((4-fluoronaphthalen-1-yl)oxy)propyl)-11,12-dimethyl-4,5,6,7,9,11-hexahydropyrazolo[4′,3′:9,10][1]oxa[6]azacycloundecino[8,7,6-hi]indole-2-carboxylic acid]
IC50 (SUDHL5 [1]; Homo sapiens, SU-DHL-5, 72 h): 5.3e-07 M | IC50 (SUDHL5 [2]; Homo sapiens, SU-DHL-5, 5 h): 1.1e-06 M | IC50 (SUDHL10; Homo sapiens, SU-DHL10, 5 h): 3e-06 M | IC50 (BCL-2): > 20 µM

Cc1c2c(nn1C)COCCCCn1c(C(=O)O)c(CCCOc3cccc4c3CCCC4)c3ccc(F)c-2c31 (racemic) [Example 18, (rac)-13-fluoro-11,12-dimethyl-1-(3-((5,6,7,8-tetrahydronaphthalen-1-yl)oxy)propyl)-4,5,6,7,9,11-hexahydropyrazolo[4′,3′:9,10][1]oxa[6]azacycloundecino[8,7,6-hi]indole-2-carboxylic acid]
IC50 (SUDHL5 [1]; Homo sapiens, SU-DHL-5, 72 h): 1.2e-06 M | IC50 (SUDHL5 [2]; Homo sapiens, SU-DHL-5, 5 h): 8.8e-07 M | IC50 (SUDHL10; Homo sapiens, SU-DHL10, 5 h): 1.7e-06 M | IC50 (BCL-2): > 20 µM

Cc1cc(OCCCc2c(C(=O)O)n3c4c(c(F)ccc24)-c2c(nn(C)c2C)COCCCC3)cc(C)c1Cl (racemic) [Example 20, (rac)-1-(3-(4-chloro-3,5-dimethylphenoxy)propyl)-13-fluoro-11,12-dimethyl-4,5,6,7,9,11-hexahydropyrazolo[4′,3′:9,10][1]oxa[6]azacycloundecino[8,7,6-hi]indole-2-carboxylic acid]
IC50 (SUDHL5 [1]; Homo sapiens, SU-DHL-5, 72 h): 1.1e-06 M | IC50 (SUDHL5 [2]; Homo sapiens, SU-DHL-5, 5 h): 1.8e-06 M | IC50 (SUDHL10; Homo sapiens, SU-DHL10, 5 h): 2.6e-06 M | IC50 (BCL-2): > 20 µM

Cc1c2c(nn1C)COCCCCn1c(C(=O)O)c(CCCOc3cccc4ccccc34)c3ccc(F)c-2c31 (single isomer, unassigned; enantiomer 1) [Example 3, 4-fluoro-2,3-dimethyl-7-[3-(naphthalen-1-yloxy)propyl]-2,10,11,12,13,15-hexahydropyrazolo-[4′,3′:9,10][1,6]oxazacycloundecino[8,7,6-hi]indole-8-carboxylic acid-N-ethylethanamine salt (enantiomer 1)]
IC50 (SUDHL5 [1]; 72 h): 6.4e-07 M | IC50 (SUDHL5 [2]): 7.7e-07 M | IC50 (A2780; 72 h, listed as 03): 23.8 µM and 17.6 µM and 15.3 µM | IC50 (SUDHL10; Homo sapiens, SU-DHL10, 5 h): 1.1e-06 M

CCc1c2c(nn1C)COCCCCn1c(C(=O)O)c(CCCOc3cccc4ccccc34)c3ccc(F)c-2c31 (single isomer, unassigned; enantiomer 1) [Example 7, 3-ethyl-4-fluoro-2-methyl-7-{3-[(naphthalen-1-yl)oxy]propyl}-2,10,11,12,13,15-hexahydro-pyrazolo[4′,3′:9,10][1,6]oxazacycloundecino[8,7,6-hi]indole-8-carboxylic acid-N-ethylethanamine salt (enantiomer 1)]
IC50 (SUDHL5 [1]; 72 h): 7.5e-07 M | IC50 (SUDHL5 [2]): 4.6e-07 M | IC50 (A2780; 72 h, listed as 07): 8.84 µM and 13.2 µM | IC50 (SUDHL10): 1.3e-06 M

Cc1c2c(nn1C)COCCCCn1c(C(=O)O)c(CCCOc3cccc4cc(F)ccc34)c3ccc(F)c-2c31 (single isomer, unassigned; enantiomer 1) [Example 13, 4-fluoro-7-{3-[(6-fluoronaphthalen-1-yl)oxy]propyl}-2,3-dimethyl-2,10,11,12,13,15-hexahydro-pyrazolo[4′,3′:9,10][1,6]oxazacycloundecino[8,7,6-hi]indole-8-carboxylic acid-N-ethylethanamine salt (enantiomer 1)]
IC50 (SUDHL5 [1]; 72 h): 2.9e-07 M | IC50 (SUDHL5 [2]): 3.9e-07 M | IC50 (A2780; 72 h): 4.11 µM | IC50 (SUDHL10): 8e-07 M

CCc1c2c(nn1C)COCCCCn1c(C(=O)O)c(CCCOc3cccc4cc(F)ccc34)c3ccc(F)c-2c31 (single isomer, unassigned; enantiomer 1) [Example 22, 3-ethyl-4-fluoro-7-{3-[(6-fluoronaphthalen-1-yl)oxy]propyl}-2-methyl-2,10,11,12,13,15-hexahydropyrazolo[4′,3′:9,10][1,6]oxazacycloundecino[8,7,6-hi]indole-8-carboxylic acid-N-ethylethanamine salt (enantiomer 1)]
IC50 (SUDHL5 [1]; 72 h): 2.7e-07 M | IC50 (SUDHL5 [2]): 3.3e-07 M | IC50 (A2780; Homo sapiens, A2780, 72 h): 3.88 µM | IC50 (SUDHL10): 5.5e-07 M

CCc1c2c(nn1C)COCCCCn1c(C(=O)O)c(CCCOc3ccc(F)c4ccccc34)c3ccc(F)c-2c31 (single isomer, unassigned; enantiomer 1) [Example 27, 3-ethyl-4-fluoro-7-{3-[(4-fluoronaphthalen-1-yl)oxy]propyl}-2-methyl-2,10,11,12,13,15-hexahydropyrazolo[4′,3′:9,10][1,6]oxazacycloundecino[8,7,6-hi]indole-8-carboxylic acid-N-ethylethanamine salt (enantiomer 1)]
IC50 (SUDHL5 [1]; 72 h): 6.2e-07 M | IC50 (SUDHL5 [2]): 1e-06 M | IC50 (SUDHL10): 1.8e-06 M

CCc1nn(C)c2c1-c1c(F)ccc3c(CCCOc4cccc5cc(F)ccc45)c(C(=O)O)n(c13)CCCCOC2 (single isomer, unassigned; enantiomer 1) [Example 39, 3-ethyl-4-fluoro-7-{3-[(6-fluoronaphthalen-1-yl)oxy]propyl}-1-methyl-1,10,11,12,13,15-hexahydropyrazolo[4′,3′:9,10][1,6]oxazacycloundecino[8,7,6-hi]indole-8-carboxylic acid-N-ethylethanamine salt (enantiomer 1)]
IC50 (SUDHL5 [1]; 72 h): 6.8e-07 M | IC50 (SUDHL5 [2]): 6.2e-07 M | IC50 (A2780; 72 h): 4.84 µM | IC50 (SUDHL10): 1e-06 M

CCc1c2c(nn1C)COCCCCn1c(C(=O)O)c(CCCOc3cccc4cc(F)ccc34)c3ccc(F)c-2c31 (single isomer, unassigned; enantiomer 2) [Example 23, 3-ethyl-4-fluoro-7-{3-[(6-fluoronaphthalen-1-yl)oxy]propyl}-2-methyl-2,10,11,12,13,15-hexahydropyrazolo[4′,3′:9,10][1,6]oxazacycloundecino[8,7,6-hi]indole-8-carboxylic acid-N-ethylethanamine salt (enantiomer 2)]
IC50 (SUDHL5 [1]; 72 h): 1.4e-06 M | IC50 (SUDHL5 [2]): 3.2e-06 M | IC50 (SUDHL10): 9e-06 M
